Patent US10799494B2, “Combination of respiratory electron transport chain inhibitors with a cytochrome bd inhibitor” (priority 2015, dated 2020)
Several values for one entry are separate records, joined by “and”; a condition that tells them apart may be missing. Identical values can stand only once.

Assays:
[1] = test system: Mtb H37Rv; test: In vitro (replicating) Mtb growth inhibition, microplate Alamar blue assay; assay type: cell-based, Mycobacterium tuberculosis
[2] = test system: Mycobacterium tuberculosis (Mtb) H37Rv; test: MGIT growth inhibition assay, time to positivity; assay type: cell-based
[3] = target: bovine cytochrome bc1 (Bos taurus (Bovine), UniProt P00157); test: Bovine cytochrome bc1 inhibition (cytochrome c reduction, Keilin-Hartree particles); assay type: biochemical
bovine cytochrome bc1, sequence (P00157 whole entry, looked up): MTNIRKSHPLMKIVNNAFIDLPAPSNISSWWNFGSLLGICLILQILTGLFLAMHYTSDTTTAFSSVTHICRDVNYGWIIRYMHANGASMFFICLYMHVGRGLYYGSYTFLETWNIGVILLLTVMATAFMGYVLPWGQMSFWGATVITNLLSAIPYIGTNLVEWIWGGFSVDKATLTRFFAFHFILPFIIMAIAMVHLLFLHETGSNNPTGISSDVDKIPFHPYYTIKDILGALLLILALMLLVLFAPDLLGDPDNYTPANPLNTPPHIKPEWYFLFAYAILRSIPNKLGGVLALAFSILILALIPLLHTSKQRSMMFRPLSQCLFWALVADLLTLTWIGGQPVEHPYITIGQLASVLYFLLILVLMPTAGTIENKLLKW

[4] = test system: HepG2 cell line; test: Human cell counter screen (HepG2) cellular toxicity
[5] = test system: M. tuberculosis H37Rv; test: M. tuberculosis H37Rv growth inhibition screen at fixed 5 μM; assay type: cell-based, Mycobacterium tuberculosis; conditions: Mycobacterium tuberculosis, H37RV; aerobic; 5 μM compound; read-out: Growth of M. tuberculosis H37Rv (aerobic) at 5 μM of [compounds]
[6] = target: M. tuberculosis cytochrome bd-I (Mycobacterium tuberculosis, UniProt L7N662); assay type: biochemical
M. tuberculosis cytochrome bd-I, sequence (L7N662 1-485): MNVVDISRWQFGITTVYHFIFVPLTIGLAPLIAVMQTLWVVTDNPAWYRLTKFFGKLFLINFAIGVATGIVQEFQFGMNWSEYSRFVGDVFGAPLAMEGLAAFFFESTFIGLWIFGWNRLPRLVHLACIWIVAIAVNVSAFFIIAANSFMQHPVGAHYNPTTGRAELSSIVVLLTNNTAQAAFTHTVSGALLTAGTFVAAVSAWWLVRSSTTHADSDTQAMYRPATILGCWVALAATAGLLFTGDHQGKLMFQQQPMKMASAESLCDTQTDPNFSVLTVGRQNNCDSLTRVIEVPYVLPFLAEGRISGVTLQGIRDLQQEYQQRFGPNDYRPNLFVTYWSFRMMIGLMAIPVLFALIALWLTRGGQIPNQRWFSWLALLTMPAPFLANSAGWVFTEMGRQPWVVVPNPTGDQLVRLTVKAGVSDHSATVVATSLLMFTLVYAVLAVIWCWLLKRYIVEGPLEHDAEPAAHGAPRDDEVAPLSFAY

[7] = test system: COc1c(O)c(C)c(C/C=C(\C)CCC=C(C)C)c(O)c1OC; test: cells, lysate or membranes named; conditions: pH 7.5
[8] = test system: COc1c(O)c(C)c(CC=C(C)C)c(O)c1OC; test: cells, lysate or membranes named; conditions: pH 7.5
[9] = 9/79 vs placebo 2/81, […]; cited from earlier work
[10] = Table 8, WDH-2G-6 3 μM, MTC420 5.5 μM, lansoprazole sulphide 26.5 μM, TMC207 250 nM, media control 10

Compound	IC50 [3] [µM]	HepG2 [4] [µM]	activity at 5 µM [5] [%]	other results
Cc1c(-c2ccc(N3CCC(F)(F)C3)cc2)[nH]c2cc(F)cc(F)c2c1=O [MTC420]	–	–	–	IC50 [1]: 0.52 µM; Time to positivity / outgrowth of Mtb in MGITs ([2]; FIG. 3, repeated 3 times): 11 to 13 days; Time to Positivity ([2]; Table 6, compounds at 5x IC90, drug free control 11, followed to 74 days): 18 days; Time to Positivity [2, 10]: 13 days
Cc1c(-c2ccc(Cc3ccccc3)cc2)[nH]c2ccccc2c1=O [CK-2-88, 2-(4-Benzylphenyl)-3-methylquinolin-4(1H)-one]	0.34	>100	90.5	inhibition @ 1 uM (% of cntls) [6]: 87.5 % of cntls
Cc1c(-c2ccc(Cc3ccc(F)cc3)cc2)[nH]c2ccccc2c1=O [LT-9, 2-(4-(4-Fluorobenzyl)phenyl)-3-methylquinolin-4(1H)-one]	–	>50	34.7	–
O=c1cc(-c2ccc(Cc3ccc(OC(F)(F)F)cc3)cc2)[nH]c2ccccc12 [RKA-70, 2-(4-(4-(Trifluoromethoxy)benzyl)phenyl)quinolin-4(1H)-one]	0.31	>50	100	–
recombinant M. tuberculosis bd-I (Mycobacterium tuberculosis H37Rv)	–	–	–	Km [7]: 65.21 ± 15.31 µM and 65.2 ± 15.3 µM; Km [8]: 51.55 ± 8.9 µM and 51.6 ± 8.9 µM and 51.8 ± 6.1 µM
Cc1c(-c2ccc(-c3ccc(OC(F)(F)F)cc3)nc2)[nH]c2ccccc2c1=O [SL-2-25, 3-Methyl-2-(6-(4-(trifluoromethoxy)phenyl)pyridin-3-yl)quinolin-4(1H)-one]	0.89	>50	88.9	–
COc1nc2ccc(Br)cc2cc1[C@@H](c1ccccc1)[C@@](O)(CCN(C)C)c1cccc2ccccc12 [TMC 207, bedaquiline]	–	–	–	Time to Positivity ([2]; Table 7 / FIG. 9, compounds at 5x IC90, 7.5×10^5 Mtb cells per tube, drug free control 8, followed to 80 days): 12 days; Time to Positivity [2, 10]: 13 days; death in treatment group [9]: 11.4%
